24 compounds from patent publication US20100311714A1, “1H-IMIDAZO[4,5-c]QUINOLINONE COMPOUNDS” (priority 2009, published 2010) can be followed below.

Molecules are shown by their SMILES. Read-outs that look alike come from different tables or passages of the source.

One assay has as its target T1, mTOR (Homo sapiens, UniProt P42345).
T1 construct: purchased Invitrogen Corporation (Carlsbad/Calif., USA) PV4753
The assay can be described thus: Biochemical assay for m-TOR by TR-FRET. Put shortly: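 mTOR (0.5 nM) phosphorylates GFP-4EBP1 (400 nM) with 8 μM ATP at rt in 50 mM HEPES pH 7.5, 10 mM MnCl2, 50 mM NaCl, 1 mM EGTA, 1 mM DTT; compounds 0.003–10 μM final. EDTA stop with Tb-anti-p4EBP1[pT46] antibody (0.5 nM); TR-FRET read after 15 min against no-enzyme and vehicle controls.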
(In general: Time-resolved FRET reads energy transfer from a long-lived donor to a nearby acceptor.)

The subject of assay [1] is S6 Ribosomal Protein phosphorylation Ser235/236 in TSC1 null mouse embryo fibroblast (MEF) cells. The assay can be described thus: Reverse protein array, S6 Ribosomal Protein phosphorylation in TSC1 null MEF cells. In kind it is cell-based. To be noted: 1 h, TSC1-/- MEFs, 60 minutes. The method in brief: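 Phospho-S6 (Ser235/236) was quantified by reverse protein array of cell lysates with a phospho-specific primary antibody. […]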

T1 sequence (P42345 1360-2549 limits assumed): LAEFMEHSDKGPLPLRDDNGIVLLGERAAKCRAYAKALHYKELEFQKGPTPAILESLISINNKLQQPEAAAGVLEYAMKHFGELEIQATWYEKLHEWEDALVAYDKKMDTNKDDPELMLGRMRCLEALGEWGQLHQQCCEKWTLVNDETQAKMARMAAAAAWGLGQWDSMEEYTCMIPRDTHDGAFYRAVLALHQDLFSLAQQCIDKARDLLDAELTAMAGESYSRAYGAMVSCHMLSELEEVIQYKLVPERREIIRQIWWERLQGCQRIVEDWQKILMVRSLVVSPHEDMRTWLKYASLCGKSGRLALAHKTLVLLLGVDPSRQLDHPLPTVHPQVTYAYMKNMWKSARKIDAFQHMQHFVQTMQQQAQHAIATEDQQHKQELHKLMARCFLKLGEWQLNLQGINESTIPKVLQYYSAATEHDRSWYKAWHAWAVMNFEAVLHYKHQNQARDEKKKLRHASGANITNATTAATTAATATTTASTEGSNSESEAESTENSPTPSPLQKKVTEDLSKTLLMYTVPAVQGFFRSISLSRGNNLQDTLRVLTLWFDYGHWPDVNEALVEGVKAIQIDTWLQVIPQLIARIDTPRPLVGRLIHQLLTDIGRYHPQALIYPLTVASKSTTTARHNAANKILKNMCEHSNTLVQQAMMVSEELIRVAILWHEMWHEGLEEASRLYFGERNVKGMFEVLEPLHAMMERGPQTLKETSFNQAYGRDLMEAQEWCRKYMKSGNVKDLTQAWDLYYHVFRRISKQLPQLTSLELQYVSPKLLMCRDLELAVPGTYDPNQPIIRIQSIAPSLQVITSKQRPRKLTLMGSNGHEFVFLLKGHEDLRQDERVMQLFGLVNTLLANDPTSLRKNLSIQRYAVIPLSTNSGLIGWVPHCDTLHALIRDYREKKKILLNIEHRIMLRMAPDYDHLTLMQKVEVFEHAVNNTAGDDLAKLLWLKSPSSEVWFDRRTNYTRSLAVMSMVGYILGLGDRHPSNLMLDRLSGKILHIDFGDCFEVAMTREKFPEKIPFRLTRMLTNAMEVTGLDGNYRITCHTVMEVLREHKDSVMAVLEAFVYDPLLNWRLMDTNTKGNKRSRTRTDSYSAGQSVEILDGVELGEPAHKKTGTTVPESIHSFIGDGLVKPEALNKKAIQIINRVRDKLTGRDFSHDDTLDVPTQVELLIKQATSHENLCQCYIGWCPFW

For `Cc1cccnc1-n1c(=O)n(C)c2cnc3ccc(-c4ccc(C(N)=O)cc4)cc3c21` [Example 3.3, 4-[3-Methyl-1-(3-methyl-pyridin-2-yl)-2-oxo-2,3-dihydro-1H-imidazo[4,5-c]quinolin-8-yl]-benzamide], the IC50 is 345 nM at mTOR (read-out: mTOR/IC50) and 297 nM in assay [1] (read-out: p-S6).

Take `Cc1cccnc1-n1c(=O)n(C)c2cnc3ccc(-c4cnc(N)c(C(F)(F)F)c4)cc3c21` [Example 3.12, 8-(6-Amino-5-trifluoromethyl-pyridin-3-yl)-3-methyl-1-(3-methyl-pyridin-2-yl)-1,3-dihydro-imidazo[4,5-c]quinolin-2-one]: the IC50 at mTOR (read-out: mTOR/IC50) is 389 nM; in assay [1] (read-out: p-S6), 13.2 nM.

`COc1ccc(-c2ccc3ncc4c(c3c2)n(-c2cnccc2C)c(=O)n4C)cn1` [Example 4.3, 8-(6-Methoxy-pyridin-3-yl)-3-methyl-1-(4-methyl-pyridin-3-yl)-1,3-dihydro-imidazo[4,5-c]quinolin-2-one]: the figures for the IC50 (at mTOR (read-out: mTOR/IC50); in assay [1] (read-out: p-S6)) were 442 nM and 220 nM, respectively.

For the compound `Cn1c(=O)n(-c2cccnc2F)c2c3cc(-c4cnc(N)c(C(F)(F)F)c4)ccc3ncc21` [Example 6.2, 8-(6-Amino-5-trifluoromethyl-pyridin-3-yl)-1-(2-fluoro-pyridin-3-yl)-3-methyl-1,3-dihydro-imidazo[4,5-c]quinolin-2-one], the IC50 at mTOR (read-out: mTOR/IC50) was determined as 15 nM; in assay [1] (read-out: p-S6) it was 1.47 nM.

As for `Cc1nc(F)ccc1-n1c(=O)n(C)c2cnc3ccc(-c4cnc(N)c(C(F)(F)F)c4)cc3c21` [Example 7.1, 8-(6-Amino-5-trifluoromethyl-pyridin-3-yl)-1-(6-fluoro-2-methyl-pyridin-3-yl)-3-methyl-1,3-dihydro-imidazo[4,5-c]quinolin-2-one], the IC50 worked out at 8 nM on mTOR (read-out: mTOR/IC50) and 2.23 nM in assay [1] (read-out: p-S6).

As for `Cc1nc(F)ccc1-n1c(=O)n(C)c2cnc3ccc(-c4cnc5c(ccn5C)c4)cc3c21` [Example 7.2, 1-(6-Fluoro-2-methyl-pyridin-3-yl)-3-methyl-8-(1-methyl-1H-pyrrolo[2,3-b]pyridin-5-yl)-1,3-dihydro-imidazo[4,5-c]quinolin-2-one], the IC50 was 17 nM on mTOR (read-out: mTOR/IC50) and 17.9 nM in assay [1] (read-out: p-S6).

Take `CCOc1ccc(-c2ccc3ncc4c(c3c2)n(-c2ccc(F)nc2C)c(=O)n4C)cn1` [Example 7.3, 8-(6-Ethoxy-pyridin-3-yl)-1-(6-fluoro-2-methyl-pyridin-3-yl)-3-methyl-1,3-dihydro-imidazo[4,5-c]quinolin-2-one]: the IC50 at mTOR (read-out: mTOR/IC50) turned out to be 59 nM; in assay [1] (read-out: p-S6) it was 84.3 nM.

`CNc1ccc(-c2ccc3ncc4c(c3c2)n(-c2ccc(F)nc2C)c(=O)n4C)cn1` [Example 7.4, 1-(6-Fluoro-2-methyl-pyridin-3-yl)-3-methyl-8-(6-methylamino-pyridin-3-yl)-1,3-dihydro-imidazo[4,5-c]quinolin-2-one]: the IC50 on mTOR (read-out: mTOR/IC50) was 8 nM; in assay [1] (read-out: p-S6), 8.52 nM.

Regarding `CCOc1cc(-c2ccc3ncc4c(c3c2)n(-c2ccc(F)nc2C)c(=O)n4C)cnc1COC` [Example 7.5, 8-(5-Ethoxy-6-methoxymethyl-pyridin-3-yl)-1-(6-fluoro-2-methyl-pyridin-3-yl)-3-methyl-1,3-dihydro-imidazo[4,5-c]quinolin-2-one], the IC50 on mTOR (read-out: EPK_mTOR/IC50) worked out at 88 nM; in assay [1] (read-out: p-S6 IC50), 21 nM.

Regarding `Cc1nc(F)ccc1-n1c(=O)n(C)c2cnc3ccc(-c4cncc(C(C)(C)O)c4)cc3c21` [Example 7.8, 1-(6-Fluoro-2-methyl-pyridin-3-yl)-8-[5-(1-hydroxy-1-methyl-ethyl)-pyridin-3-yl]-3-methyl-1,3-dihydro-imidazo[4,5-c]quinolin-2-one], the IC50 is 86 nM at mTOR (read-out: EPK_mTOR/IC50) and 10 nM in assay [1] (read-out: p-S6 IC50).

`CCOc1cc(-c2ccc3ncc4c(c3c2)n(-c2ccc(OCCOC)nc2C)c(=O)n4C)cnc1COC` [Example 22.1, 8-(5-Ethoxy-6-methoxymethyl-pyridin-3-yl)-1-[6-(2-methoxy-ethoxy)-2-methyl-pyridin-3-yl]-3-methyl-1,3-dihydro-imidazo[4,5-c]quinolin-2-one]: the IC50 on mTOR (read-out: EPK_mTOR/IC50) came to 98 nM; in assay [1] (read-out: p-S6 IC50), 7 nM.

With `Cc1nc(N2CCC2)ccc1-n1c(=O)n(C)c2cnc3ccc(-c4cncc(N5CCC5)c4)cc3c21` [Example 23.1, 1-(6-Azetidin-1-yl-2-methyl-pyridin-3-yl)-8-(5-azetidin-1-yl-pyridin-3-yl)-3-methyl-1,3-dihydro-imidazo[4,5-c]quinolin-2-one], the results for the IC50 (at mTOR (read-out: EPK_mTOR/IC50); in assay [1] (read-out: p-S6 IC50)) were 9 nM and 2 nM, respectively.

Take `CCNc1cc(-c2ccc3ncc4c(c3c2)n(-c2ccc(N3CCC3)nc2C)c(=O)n4C)cnc1CO` [Example 23.8, 1-(6-Azetidin-1-yl-2-methyl-pyridin-3-yl)-8-(5-ethylamino-6-hydroxymethyl-pyridin-3-yl)-3-methyl-1,3-dihydro-imidazo[4,5-c]quinolin-2-one]: the results for the IC50 (at mTOR (read-out: EPK_mTOR/IC50); in assay [1] (read-out: p-S6 IC50)) were 4 nM and 6 nM, respectively.

In the case of `CNc1ncc(-c2ccc3ncc4c(c3c2)n(-c2ccc(N3CC(F)(F)C3)nc2C)c(=O)n4C)cn1` [Example 24.1, 1-[6-(3,3-Difluoro-azetidin-1-yl)-2-methyl-pyridin-3-yl]-3-methyl-8-(2-methylamino-pyrimidin-5-yl)-1,3-dihydro-imidazo[4,5-c]quinolin-2-one], the values for the IC50 (on mTOR (read-out: EPK_mTOR/IC50); in assay [1] (read-out: p-S6 IC50)) were 21 nM and 2 nM, respectively.

With `CCOc1cc(-c2ccc3ncc4c(c3c2)n(-c2ccc(N3CCCC3)nc2C)c(=O)n4C)cnc1COC` [Example 25.2, 8-(5-Ethoxy-6-methoxymethyl-pyridin-3-yl)-3-methyl-1-(2-methyl-6-pyrrolidin-1-yl-pyridin-3-yl)-1,3-dihydro-imidazo[4,5-c]quinolin-2-one], the IC50 was 76 nM on mTOR (read-out: EPK_mTOR/IC50) and 2 nM in assay [1] (read-out: p-S6 IC50).

Take `Cc1nc(N2CCCC2)ccc1-n1c(=O)n(C)c2cnc3ccc(-c4cncc(C(C)(C)O)c4)cc3c21` [Example 25.3, 8-[5-(1-Hydroxy-1-methyl-ethyl)-pyridin-3-yl]-3-methyl-1-(2-methyl-6-pyrrolidin-1-yl-pyridin-3-yl)-1,3-dihydro-imidazo[4,5-c]quinolin-2-one]: the IC50 is 12 nM on mTOR (read-out: EPK_mTOR/IC50) and under 0.457 nM in assay [1] (read-out: p-S6 IC50).

As for `Cc1nc(N(C)CCO)ccc1-n1c(=O)n(C)c2cnc3ccc(-c4cnc(N)c(C(F)(F)F)c4)cc3c21` [Example 26.1, 8-(6-Amino-5-trifluoromethyl-pyridin-3-yl)-1-{6-[(2-hydroxy-ethyl)-methyl-amino]-2-methyl-pyridin-3-yl}-3-methyl-1,3-dihydro-imidazo[4,5-c]quinolin-2-one], the values for the IC50 (on mTOR (read-out: EPK_mTOR/IC50); in assay [1] (read-out: p-S6 IC50)) were under 6 nM and under 0.457 nM, respectively.

Take `CNc1ncc(-c2ccc3ncc4c(c3c2)n(-c2ccc(N(C)CCO)nc2C)c(=O)n4C)cn1` [Example 26.2, 1-{6-[(2-Hydroxy-ethyl)-methyl-amino]-2-methyl-pyridin-3-yl}-3-methyl-8-(2-methylamino-pyrimidin-5-yl)-1,3-dihydro-imidazo[4,5-c]quinolin-2-one]: the IC50 is 3 nM at mTOR (read-out: EPK_mTOR/IC50) and under 0.457 nM in assay [1] (read-out: p-S6 IC50).

Turning to `CNc1ncc(-c2ccc3ncc4c(c3c2)n(-c2ccc(N3CCC(O)C3)nc2C)c(=O)n4C)cn1` (stereo not drawn) [Example 27.2, 1-[6-(3-Hydroxy-pyrrolidin-1-yl)-2-methyl-pyridin-3-yl]-3-methyl-8-(2-methylamino-pyrimidin-5-yl)-1,3-dihydro-imidazo[4,5-c]quinolin-2-one], the IC50 at mTOR (read-out: EPK_mTOR/IC50) came to 6 nM; in assay [1] (read-out: p-S6 IC50), 2 nM.

`COC1CCN(c2ccc(-n3c(=O)n(C)c4cnc5ccc(-c6cncc(C(C)(C)O)c6)cc5c43)c(C)n2)C1` (stereo not drawn) [Example 28.1, 8-[5-(1-Hydroxy-1-methyl-ethyl)-pyridin-3-yl]-1-[6-(3-methoxy-pyrrolidin-1-yl)-2-methyl-pyridin-3-yl]-3-methyl-1,3-dihydro-imidazo[4,5-c]quinolin-2-one]: the IC50 at mTOR (read-out: EPK_mTOR/IC50) amounted to 22 nM; in assay [1] (read-out: p-S6 IC50), 1 nM.

Consider `CNc1ncc(-c2ccc3ncc4c(c3c2)n(-c2ccc(N3CC(O)C3)nc2C)c(=O)n4C)cc1F` [Example 29.3, 8-(5-Fluoro-6-methylamino-pyridin-3-yl)-1-[6-(3-hydroxy-azetidin-1-yl)-2-methyl-pyridin-3-yl]-3-methyl-1,3-dihydro-imidazo[4,5-c]quinolin-2-one], for which the values for the IC50 (at mTOR (read-out: EPK_mTOR/IC50); in assay [1] (read-out: p-S6 IC50)) were 8 nM and 7.8 nM, respectively.

Take `CNc1ncc(-c2ccc3ncc4c(c3c2)n(-c2ccc(N3CC(O)C3)nc2C)c(=O)n4C)cc1C(F)(F)F` [Example 29.4, 1-[6-(3-Hydroxy-azetidin-1-yl)-2-methyl-pyridin-3-yl]-3-methyl-8-(6-methylamino-5-trifluoromethyl-pyridin-3-yl)-1,3-dihydro-imidazo[4,5-c]quinolin-2-one]: the IC50 on mTOR (read-out: EPK_mTOR/IC50) stood at 12 nM; in assay [1] (read-out: p-S6 IC50), 1.7 nM.

As for `COc1cc(-c2ccc3ncc4c(c3c2)n(-c2ccc(N3CC(O)C3)nc2C)c(=O)n4C)cnc1CO` [Example 29.5, 1-[6-(3-Hydroxy-azetidin-1-yl)-2-methyl-pyridin-3-yl]-8-(6-hydroxymethyl-5-methoxy-pyridin-3-yl)-3-methyl-1,3-dihydro-imidazo[4,5-c]quinolin-2-one], the IC50 was 61 nM on mTOR (read-out: EPK_mTOR/IC50) and 39.1 nM in assay [1] (read-out: p-S6 IC50).

Regarding `COc1ncc(-c2ccc3ncc4c(c3c2)n(-c2ccc(N3CC(O)C3)nc2C)c(=O)n4C)c(OC)n1` [Example 29.6, 8-(2,4-Dimethoxy-pyrimidin-5-yl)-1-[6-(3-hydroxy-azetidin-1-yl)-2-methyl-pyridin-3-yl]-3-methyl-1,3-dihydro-imidazo[4,5-c]quinolin-2-one], the results for the IC50 (at mTOR (read-out: EPK_mTOR/IC50); in assay [1] (read-out: p-S6 IC50)) were 11 nM and 5 nM, respectively.
